According to article PMC8001506 (Marine Drugs, 2021):
Where a SMILES comes first, the peptide text is derived from it. Bridges are numbered along the chain shown (N, C = ends).

Columns and labels:
Experiment in all cases: cell-based
rat α7 nAChR = rat α7 nAChR (Rattus norvegicus, UniProt Q05941); assay type: cell-based
rat α2β2 nAChR = rat α2β2 nAChR (Rattus norvegicus, UniProt P12389+P12390); assay type: cell-based
rat α3β4 nAChR = rat α3β4 nAChR (Rattus norvegicus, UniProt P04757+P12392); assay type: cell-based
rat α4β4 nAChR = rat α4β4 nAChR (Rattus norvegicus, UniProt P09483+P12392); assay type: cell-based
Chain of rat α4β4 nAChR (P09483 31-630 limits assumed): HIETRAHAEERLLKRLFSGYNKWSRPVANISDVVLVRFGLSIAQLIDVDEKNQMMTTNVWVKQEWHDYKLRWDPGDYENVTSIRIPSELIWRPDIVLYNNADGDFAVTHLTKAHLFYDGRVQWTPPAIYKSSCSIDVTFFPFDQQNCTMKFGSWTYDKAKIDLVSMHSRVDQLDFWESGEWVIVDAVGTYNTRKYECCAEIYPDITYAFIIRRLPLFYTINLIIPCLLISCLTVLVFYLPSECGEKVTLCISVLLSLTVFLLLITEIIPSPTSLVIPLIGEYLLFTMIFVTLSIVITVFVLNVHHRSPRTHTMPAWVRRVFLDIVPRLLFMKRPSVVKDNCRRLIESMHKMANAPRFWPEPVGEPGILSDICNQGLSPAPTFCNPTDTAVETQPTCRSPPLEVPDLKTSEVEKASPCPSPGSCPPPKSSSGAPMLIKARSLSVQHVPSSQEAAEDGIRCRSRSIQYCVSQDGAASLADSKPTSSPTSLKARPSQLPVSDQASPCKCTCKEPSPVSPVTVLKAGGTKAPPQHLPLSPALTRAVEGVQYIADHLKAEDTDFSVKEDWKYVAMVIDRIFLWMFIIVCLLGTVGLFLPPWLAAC
Chain of rat α4β4 nAChR (P12392 21-495 limits assumed): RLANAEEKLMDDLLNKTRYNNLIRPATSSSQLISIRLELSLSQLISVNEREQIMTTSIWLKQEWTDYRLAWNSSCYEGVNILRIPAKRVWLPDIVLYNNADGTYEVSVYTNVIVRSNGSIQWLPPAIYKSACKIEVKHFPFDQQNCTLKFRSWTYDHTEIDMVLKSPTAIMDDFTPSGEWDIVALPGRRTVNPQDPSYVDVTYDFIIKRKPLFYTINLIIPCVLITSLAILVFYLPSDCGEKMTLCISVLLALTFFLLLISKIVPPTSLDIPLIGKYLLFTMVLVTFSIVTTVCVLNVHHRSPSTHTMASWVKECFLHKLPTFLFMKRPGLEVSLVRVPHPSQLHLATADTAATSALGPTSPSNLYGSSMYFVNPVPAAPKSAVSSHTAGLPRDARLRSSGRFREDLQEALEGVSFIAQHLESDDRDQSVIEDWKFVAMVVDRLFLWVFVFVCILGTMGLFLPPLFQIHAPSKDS

human α9α10 nAChR = human α9α10 nAChR (Homo sapiens, UniProt Q9GZZ6+Q9UGM1); assay type: cell-based
rat α2β4 nAChR = rat α2β4 nAChR (Rattus norvegicus, UniProt P12389+P12392); assay type: cell-based
Chain of rat α2β4 nAChR (P12389 28-511 limits assumed): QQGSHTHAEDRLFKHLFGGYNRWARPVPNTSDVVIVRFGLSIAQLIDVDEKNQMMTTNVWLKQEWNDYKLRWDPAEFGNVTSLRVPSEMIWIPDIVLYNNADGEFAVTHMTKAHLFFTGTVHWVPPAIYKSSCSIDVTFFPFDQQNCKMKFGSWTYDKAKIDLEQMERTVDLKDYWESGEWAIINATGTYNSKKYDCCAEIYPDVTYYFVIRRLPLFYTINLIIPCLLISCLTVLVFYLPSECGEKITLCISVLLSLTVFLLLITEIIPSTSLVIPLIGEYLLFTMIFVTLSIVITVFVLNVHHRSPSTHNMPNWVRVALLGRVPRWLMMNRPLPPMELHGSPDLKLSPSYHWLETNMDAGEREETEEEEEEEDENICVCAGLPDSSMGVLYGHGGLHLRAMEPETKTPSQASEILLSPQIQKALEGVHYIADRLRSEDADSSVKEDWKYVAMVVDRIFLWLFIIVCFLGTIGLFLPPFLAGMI
Chain of rat α2β4 nAChR (P12392 21-495 limits assumed): as the sequence (P12392 21-495 limits assumed) above

rat α6/α3β2β3 nAChR = rat α6/α3β2β3 nAChR (Rattus norvegicus, UniProt P04757+P12390+P12391+P43143)
Chain of rat α6/α3β2β3 nAChR (P04757 whole entry, looked up): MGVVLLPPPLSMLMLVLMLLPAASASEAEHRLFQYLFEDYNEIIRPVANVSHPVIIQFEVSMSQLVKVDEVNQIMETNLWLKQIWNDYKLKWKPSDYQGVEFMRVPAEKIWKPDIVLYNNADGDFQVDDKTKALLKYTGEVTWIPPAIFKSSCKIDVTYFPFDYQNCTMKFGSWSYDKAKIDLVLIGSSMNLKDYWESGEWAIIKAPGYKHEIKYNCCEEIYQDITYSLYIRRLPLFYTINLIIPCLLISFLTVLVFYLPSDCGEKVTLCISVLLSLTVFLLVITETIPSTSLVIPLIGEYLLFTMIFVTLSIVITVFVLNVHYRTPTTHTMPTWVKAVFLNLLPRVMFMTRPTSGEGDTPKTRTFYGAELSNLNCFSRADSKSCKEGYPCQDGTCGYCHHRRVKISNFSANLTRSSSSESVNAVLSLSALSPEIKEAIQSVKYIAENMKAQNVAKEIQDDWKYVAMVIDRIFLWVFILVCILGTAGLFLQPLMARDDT
Chain of rat α6/α3β2β3 nAChR (P12390 whole entry, looked up): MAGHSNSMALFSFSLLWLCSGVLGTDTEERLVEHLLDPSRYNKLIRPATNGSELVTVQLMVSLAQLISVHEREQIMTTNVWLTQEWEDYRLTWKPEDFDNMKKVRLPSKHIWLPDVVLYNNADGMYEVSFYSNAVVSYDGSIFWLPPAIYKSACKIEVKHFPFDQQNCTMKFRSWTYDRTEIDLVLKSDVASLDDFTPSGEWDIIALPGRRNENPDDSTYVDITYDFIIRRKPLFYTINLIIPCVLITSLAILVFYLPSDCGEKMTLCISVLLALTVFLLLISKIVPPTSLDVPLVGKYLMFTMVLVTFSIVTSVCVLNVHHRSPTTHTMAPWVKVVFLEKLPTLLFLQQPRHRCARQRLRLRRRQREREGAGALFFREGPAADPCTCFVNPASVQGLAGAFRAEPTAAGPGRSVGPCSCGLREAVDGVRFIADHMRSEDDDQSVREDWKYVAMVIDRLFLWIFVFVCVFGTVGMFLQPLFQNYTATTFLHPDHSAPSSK
Chain of rat α6/α3β2β3 nAChR (P12391 whole entry, looked up): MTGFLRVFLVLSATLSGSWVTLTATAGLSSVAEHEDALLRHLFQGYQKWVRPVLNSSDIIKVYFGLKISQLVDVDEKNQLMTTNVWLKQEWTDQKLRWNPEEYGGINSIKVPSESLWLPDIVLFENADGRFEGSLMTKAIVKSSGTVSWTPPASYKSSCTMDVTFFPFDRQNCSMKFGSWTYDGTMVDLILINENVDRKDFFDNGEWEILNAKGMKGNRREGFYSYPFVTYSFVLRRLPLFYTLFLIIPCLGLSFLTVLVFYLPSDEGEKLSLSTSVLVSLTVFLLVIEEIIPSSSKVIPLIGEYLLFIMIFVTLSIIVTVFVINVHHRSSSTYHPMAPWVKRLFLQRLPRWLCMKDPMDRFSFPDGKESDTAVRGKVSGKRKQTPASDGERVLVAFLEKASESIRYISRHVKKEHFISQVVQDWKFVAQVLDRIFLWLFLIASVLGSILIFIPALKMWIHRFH
Chain of rat α6/α3β2β3 nAChR (P43143 whole entry, looked up): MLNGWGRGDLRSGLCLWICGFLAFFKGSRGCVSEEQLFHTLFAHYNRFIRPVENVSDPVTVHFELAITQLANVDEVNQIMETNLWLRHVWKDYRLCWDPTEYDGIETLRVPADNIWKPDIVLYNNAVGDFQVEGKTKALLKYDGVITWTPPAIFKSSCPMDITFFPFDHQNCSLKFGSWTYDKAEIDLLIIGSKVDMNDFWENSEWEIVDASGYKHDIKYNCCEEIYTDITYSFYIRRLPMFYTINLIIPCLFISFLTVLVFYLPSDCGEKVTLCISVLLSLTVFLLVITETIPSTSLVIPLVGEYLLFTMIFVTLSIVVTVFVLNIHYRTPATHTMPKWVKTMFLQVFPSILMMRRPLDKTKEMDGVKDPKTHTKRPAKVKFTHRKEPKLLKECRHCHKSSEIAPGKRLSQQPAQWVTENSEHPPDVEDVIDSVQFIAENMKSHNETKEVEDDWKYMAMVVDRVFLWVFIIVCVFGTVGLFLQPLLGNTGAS

rat α3β2 nAChR = rat α3β2 nAChR (Rattus norvegicus, UniProt P04757+P12390)
rat α4β2 nAChR = rat α4β2 nAChR (Rattus norvegicus, UniProt P09483+P12390); assay type: cell-based
Chain of rat α4β2 nAChR (P09483 31-630 limits assumed): as the sequence (P09483 31-630 limits assumed) above
Chain of rat α4β2 nAChR (P12390 25-500 limits assumed): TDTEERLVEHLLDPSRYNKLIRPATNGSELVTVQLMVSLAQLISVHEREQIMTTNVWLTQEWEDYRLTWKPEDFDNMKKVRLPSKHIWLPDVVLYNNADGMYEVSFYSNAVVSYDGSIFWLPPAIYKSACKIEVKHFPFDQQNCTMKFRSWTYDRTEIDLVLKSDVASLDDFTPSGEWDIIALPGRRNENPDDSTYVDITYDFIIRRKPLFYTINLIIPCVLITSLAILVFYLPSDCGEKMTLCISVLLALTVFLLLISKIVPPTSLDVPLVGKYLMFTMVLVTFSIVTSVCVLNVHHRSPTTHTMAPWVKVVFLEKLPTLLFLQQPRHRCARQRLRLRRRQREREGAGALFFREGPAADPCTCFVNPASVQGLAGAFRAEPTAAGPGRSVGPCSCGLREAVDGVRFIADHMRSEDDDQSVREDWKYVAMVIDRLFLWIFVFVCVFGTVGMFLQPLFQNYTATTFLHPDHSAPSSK

Chain of rat α7 nAChR (Q05941 23-502 limits assumed): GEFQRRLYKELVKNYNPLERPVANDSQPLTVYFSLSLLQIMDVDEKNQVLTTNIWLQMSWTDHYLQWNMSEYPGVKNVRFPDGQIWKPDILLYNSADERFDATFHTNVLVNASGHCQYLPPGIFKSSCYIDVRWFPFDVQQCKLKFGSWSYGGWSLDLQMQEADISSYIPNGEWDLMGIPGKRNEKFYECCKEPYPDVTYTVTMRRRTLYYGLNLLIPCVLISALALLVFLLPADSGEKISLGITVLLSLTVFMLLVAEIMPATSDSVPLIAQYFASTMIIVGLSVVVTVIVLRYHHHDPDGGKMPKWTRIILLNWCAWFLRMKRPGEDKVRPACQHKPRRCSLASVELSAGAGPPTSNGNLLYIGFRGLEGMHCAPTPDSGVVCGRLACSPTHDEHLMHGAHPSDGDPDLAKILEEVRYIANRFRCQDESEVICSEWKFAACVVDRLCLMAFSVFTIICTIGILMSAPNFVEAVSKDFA
Chain of rat α2β2 nAChR (P12389 28-511 limits assumed): as the sequence (P12389 28-511 limits assumed) above
Chain of rat α2β2 nAChR (P12390 25-500 limits assumed): as the sequence (P12390 25-500 limits assumed) above

CC(C)C[C@@H]1NC(=O)[C@H](CC(=O)O)NC(=O)[C@H](CO)NC(=O)[C@H](Cc2c[nH]cn2)NC(=O)[C@H](CCC(N)=O)NC(=O)[C@H](C(C)C)NC(=O)[C@H](CCC(N)=O)NC(=O)[C@@H]2CSSC[C@H](NC(=O)[C@@H](NC(=O)[C@H](CC(=O)O)NC(=O)[C@H](C)NC(=O)CNC(=O)[C@H](CO)NC(=O)[C@H](C)N)[C@@H](C)O)C(=O)N[C@@H](CSSC[C@@H](C(=O)O)NC1=O)C(=O)N[C@@H](CO)C(=O)N[C@@H](CC(N)=O)C(=O)N1CCC[C@H]1C(=O)N[C@@H](C)C(=O)N2 [CIC] (H-ASGADTCCSNPACQVQHSDLC-OH; disulfide 7-13, 8-21)
IC50 (rat α7 nAChR): > 10 µM
IC50 (rat α2β2 nAChR): > 10 µM
IC50 (rat α3β4 nAChR): > 10 µM
IC50 (rat α4β4 nAChR): > 10 µM
IC50 (human α9α10 nAChR): > 10 µM
IC50 (rat α2β4 nAChR): > 10 µM
IC50 (rat α6/α3β2β3 nAChR): 1030 nM
IC50 (rat α3β2 nAChR): 3.51 µM
IC50 (rat α4β2 nAChR): > 10 µM
